Values joined by “and” are separate entries in the source; they are usually repeats but may differ in a detail not shown here. Equal values may be shown once. ± gives the uncertainty stated by the source.
What was measured:
[1] = xn = mol fraction of the nth substance listed

CC(C)[O-].CC(C)[O-].CC(C)[O-].CC(C)[O-].[Ti+4]
101.3 kPa
Conditions	viscosity [mPa·s]
293.15 K	3.144 ± 0.19
303.15 K	1.845 ± 0.11
313.15 K	1.279 ± 0.077
323.15 K	1.003 ± 0.061

CC1CCCCC1O (stereo not drawn)
viscosity [mPa·s]
Conditions	293.15 K	298.15 K	303.15 K	308.15 K	313.15 K
100 kPa	38.6 ± 0.84	26.99 ± 0.59	18.91 ± 0.41	13.95 ± 0.3	10.53 ± 0.23
101 kPa	21.7 ± 0.6	–	–	–	–

CCC(C)(O)CC
Conditions	viscosity
298.15 K, 101.33 kPa	3.918 ± 0.036 mPa·s and 3.918 ± 0.031 mPa·s

CCCC(C)=O
Conditions	viscosity
293.15 K, 101 kPa	0.506 ± 0.005 mPa·s
298.15 K, 101 kPa	0.463 ± 0.016 mPa·s and 0.4591 ± 0.0049 mPa·s and 0.4673 ± 0.013 mPa·s
303.15 K, 100 kPa	0.435 ± 0.018 mPa·s
303.15 K, 101 kPa	0.437 ± 0.016 mPa·s and 0.435 ± 0.02 mPa·s
303.15 K, 101.32 kPa	0.466 ± 0.004 mPa·s
303.15 K, 101.33 kPa	0.456 ± 0.013 mPa·s
308.15 K, 100 kPa	0.422 ± 0.017 mPa·s
308.15 K, 101 kPa	0.413 ± 0.016 mPa·s and 0.422 ± 0.02 mPa·s and 0.4197 ± 0.011 mPa·s
313.15 K, 100 kPa	0.409 ± 0.017 mPa·s
313.15 K, 101 kPa	0.405 ± 0.004 mPa·s
318.15 K, 101 kPa	0.3782 ± 0.01 mPa·s
323.15 K, 101 kPa	0.3584 ± 0.004 mPa·s

CCCCCCCC(=O)[O-].CC[NH+](C(C)C)C(C)C
Conditions	viscosity [mPa·s]
298.15 K, 101.3 kPa	13.52 ± 0.84

CCCCCCCCCCCCCC[P+](CCCCCC)(CCCCCC)CCCCCC.O=S(=O)([N-]S(=O)(=O)C(F)(F)F)C(F)(F)F
Conditions	viscosity [mPa·s]
313.15 K, 101 kPa	150 ± 16

CCCC[n+]1ccccc1.N#C[N-]C#N
101 kPa
Conditions	viscosity [mPa·s]
293.15 K	41.05 ± 0.38
298.15 K	33.27 ± 0.31
303.15 K	27.62 ± 0.26
308.15 K	22.9 ± 0.21
313.15 K	19.3 ± 0.18
318.15 K	16.73 ± 0.16
323.15 K	14.44 ± 0.14

CCCOC(C)=O
viscosity
Conditions	293.15 K	298.15 K	303.15 K	308.15 K	313.15 K	318.15 K
101 kPa	0.591 ± 0.006 mPa·s	0.56 ± 0.02 mPa·s and 0.553 ± 0.015 mPa·s and 0.562 ± 0.034 mPa·s	0.525 ± 0.032 mPa·s	0.487 ± 0.013 mPa·s and 0.488 ± 0.029 mPa·s	0.462 ± 0.005 mPa·s and 0.451 ± 0.027 mPa·s	0.439 ± 0.012 mPa·s
101.33 kPa	–	0.563 ± 0.015 mPa·s	0.524 ± 0.015 mPa·s and 0.512 ± 0.004 mPa·s	0.489 ± 0.014 mPa·s and 0.483 ± 0.004 mPa·s	–	–

CCN(CC)CC
Conditions	viscosity
293.15 K, 100 kPa	0.3608 ± 0.004 mPa·s
293.15 K, 101 kPa	0.369 ± 0.01 mPa·s
297.85 K, 101 kPa	0.352 ± 0.004 mPa·s
298 K, 101.33 kPa	0.35 ± 0.007 mPa·s
298.15 K, 100 kPa	0.353 ± 0.1 mPa·s and 0.3534 ± 0.15 mPa·s (2×)
298.15 K, 101 kPa	0.344 ± 0.007 mPa·s
302.85 K, 101 kPa	0.335 ± 0.004 mPa·s
303.15 K, 100 kPa	0.339 ± 0.1 mPa·s and 0.3387 ± 0.15 mPa·s (2×)
303.15 K, 101 kPa	0.333 ± 0.01 mPa·s
303.15 K, 101.33 kPa	0.3592 ± 0.004 mPa·s and 0.3592 ± 0.005 mPa·s
307.85 K, 101 kPa	0.319 ± 0.004 mPa·s
308.15 K, 100 kPa	0.322 ± 0.1 mPa·s and 0.3221 ± 0.15 mPa·s (2×)
312.95 K, 101 kPa	0.304 ± 0.004 mPa·s
313.15 K, 101 kPa	0.302 ± 0.01 mPa·s
313.15 K, 101.33 kPa	0.3249 ± 0.0037 mPa·s and 0.3249 ± 0.0049 mPa·s
317.75 K, 101 kPa	0.291 ± 0.003 mPa·s
322.75 K, 101 kPa	0.278 ± 0.003 mPa·s
323.15 K, 101 kPa	0.275 ± 0.01 mPa·s

CCOC(=O)c1ccccc1O
Conditions	viscosity [mPa·s]
303.15 K, 101 kPa	3.117 ± 0.036

CC[N+](C)(CC)CCOC.F[B-](F)(F)F
101 kPa
Conditions	viscosity [mPa·s]
293.15 K	228.1 ± 12
298.15 K	178.6 ± 7.9
303.15 K	140.4 ± 5.3
308.15 K	111.4 ± 3.5
313.15 K	89.27 ± 2.4
318.15 K	70.53 ± 1.6
323.15 K	57.55 ± 1.2

CC[n+]1ccn(C)c1.N#C[N-]C#N
viscosity
Conditions	298.15 K	303.15 K	308.15 K	313.15 K	318.15 K	323.15 K
100 kPa	14.78 ± 0.61 mPa·s and 13.09 ± 0.82 mPa·s	12.88 ± 0.53 mPa·s and 11.39 ± 0.81 mPa·s	11.3 ± 0.47 mPa·s and 10 ± 0.81 mPa·s	9.759 ± 0.4 mPa·s and 8.86 ± 0.61 mPa·s	8.929 ± 0.37 mPa·s and 7.92 ± 0.61 mPa·s	8.01 ± 0.33 mPa·s and 7.13 ± 0.61 mPa·s
101 kPa	14.9 ± 0.62 mPa·s and 17.4 ± 2.1 mPa·s	–	–	10.07 ± 0.42 mPa·s	–	–

CCn1cc[n+](C)c1.O=C([O-])[C@@H]1CCCN1
101 kPa
Conditions	viscosity [mPa·s]
298.15 K	1195 ± 130
303.15 K	771.5 ± 72

ClC(Cl)(Cl)Cl
Conditions	viscosity
293.15 K, 101 kPa	0.95 ± 0.03 mPa·s and 0.9826 ± 0.026 mPa·s
298 K, 101 kPa	0.9128 ± 0.012 mPa·s
298 K, 101.3 kPa	0.892 ± 0.009 mPa·s
298 K, 101.33 kPa	0.899 ± 0.011 mPa·s
298.15 K, 100 kPa	0.9062 ± 0.0086 mPa·s and 0.897 ± 0.019 mPa·s
298.15 K, 101.32 kPa	0.902 ± 0.0008 mPa·s and 0.902 ± 0.0007 mPa·s
298.16 K, 101 kPa	0.907 ± 0.024 mPa·s
301.85 K, 101 kPa	0.9088 ± 0.024 mPa·s
303 K, 101.33 kPa	0.8371 ± 0.01 mPa·s and 0.838 ± 0.01 mPa·s
303.15 K, 100 kPa	0.845 ± 0.0081 mPa·s and 0.838 ± 0.018 mPa·s
303.15 K, 101.3 kPa	0.8427 ± 0.0054 mPa·s and 0.8427 ± 0.084 mPa·s
303.15 K, 101.33 kPa	0.845 ± 0.007 mPa·s and 0.845 ± 0.1 mPa·s and 0.768 ± 0.02 mPa·s
308 K, 101 kPa	0.7888 ± 0.011 mPa·s
308.15 K, 100 kPa	0.7897 ± 0.0076 mPa·s and 0.784 ± 0.017 mPa·s
308.15 K, 101.33 kPa	0.717 ± 0.019 mPa·s
312.15 K, 101 kPa	0.7815 ± 0.021 mPa·s
313 K, 101.33 kPa	0.7436 ± 0.0089 mPa·s and 0.735 ± 0.009 mPa·s
313.15 K, 100 kPa	0.7394 ± 0.0072 mPa·s and 0.734 ± 0.016 mPa·s
313.15 K, 101.33 kPa	0.739 ± 0.019 mPa·s and 0.7392 ± 0.0037 mPa·s
318 K, 101 kPa	0.6788 ± 0.0095 mPa·s
318 K, 101.3 kPa	0.7444 ± 0.027 mPa·s and 0.7449 ± 0.027 mPa·s
318 K, 101.33 kPa	0.7449 ± 0.039 mPa·s
318.15 K, 100 kPa	0.689 ± 0.015 mPa·s
323 K, 101.33 kPa	0.6566 ± 0.0079 mPa·s and 0.653 ± 0.008 mPa·s
323.15 K, 101 kPa	0.712 ± 0.019 mPa·s
323.15 K, 101.33 kPa	0.6543 ± 0.0033 mPa·s

CCCC(C)=O + c1ccccc1
[1], 303.15 K, 101.32 kPa
Conditions	viscosity [mPa·s]
x2 = 0.1304	0.469 ± 0.004
x2 = 0.2771	0.475 ± 0.004
x2 = 0.3294	0.484 ± 0.004
x2 = 0.4869	0.499 ± 0.004
x2 = 0.6257	0.515 ± 0.004
x2 = 0.6946	0.522 ± 0.004
x2 = 0.7707	0.532 ± 0.004
x2 = 0.9042	0.553 ± 0.004

CCCOC(C)=O + c1ccccc1
[1]
Conditions	viscosity [mPa·s]
298.15 K, 101.3 kPa, x2 = 0.246	0.537 ± 0.014
298.15 K, 101.3 kPa, x2 = 0.4714	0.537 ± 0.014
298.15 K, 101.3 kPa, x2 = 0.6809	0.551 ± 0.015
298.15 K, 101.3 kPa, x2 = 0.8404	0.563 ± 0.015
303.15 K, 101.33 kPa, x2 = 0.0633	0.514 ± 0.005
303.15 K, 101.33 kPa, x2 = 0.1259	0.515 ± 0.005
303.15 K, 101.33 kPa, x2 = 0.1865	0.513 ± 0.005
303.15 K, 101.33 kPa, x2 = 0.3006	0.512 ± 0.005
303.15 K, 101.33 kPa, x2 = 0.4062	0.513 ± 0.005
303.15 K, 101.33 kPa, x2 = 0.5133	0.514 ± 0.005
303.15 K, 101.33 kPa, x2 = 0.6141	0.517 ± 0.005
303.15 K, 101.33 kPa, x2 = 0.7078	0.524 ± 0.005
303.15 K, 101.33 kPa, x2 = 0.7972	0.529 ± 0.005
303.15 K, 101.33 kPa, x2 = 0.8812	0.539 ± 0.005
303.15 K, 101.33 kPa, x2 = 0.9631	0.551 ± 0.005
308.15 K, 101.3 kPa, x2 = 0.246	0.477 ± 0.013
308.15 K, 101.3 kPa, x2 = 0.4714	0.48 ± 0.013
308.15 K, 101.3 kPa, x2 = 0.8404	0.49 ± 0.013
313.15 K, 101.33 kPa, x2 = 0.1951	0.448 ± 0.005
313.15 K, 101.33 kPa, x2 = 0.4024	0.449 ± 0.005
313.15 K, 101.33 kPa, x2 = 0.5082	0.453 ± 0.005
313.15 K, 101.33 kPa, x2 = 0.6029	0.455 ± 0.005
313.15 K, 101.33 kPa, x2 = 0.8029	0.466 ± 0.005

CCN(CC)CC + c1ccccc1
[1], 303.15 K, 101 kPa
Conditions	viscosity [mPa·s]
x1 = 0.01024	0.5567 ± 0.0048
x1 = 0.02091	0.5513 ± 0.0048
x1 = 0.03113	0.545 ± 0.005
x1 = 0.03955	0.5386 ± 0.0048
x1 = 0.05006	0.5341 ± 0.0046
x1 = 0.06182	0.5287 ± 0.0047
x1 = 0.07124	0.5215 ± 0.0048
x1 = 0.08041	0.5162 ± 0.0046
x1 = 0.09192	0.5096 ± 0.0046
x1 = 0.09995	0.5041 ± 0.0047

ClC(Cl)(Cl)Cl + c1ccncc1
[1], 298.15 K, 101 kPa
Conditions	viscosity [mPa·s]
x1 = 0.09	0.9206 ± 0.0078
x1 = 0.1492	0.9404 ± 0.008
x1 = 0.2381	0.9623 ± 0.0081
x1 = 0.293	0.9729 ± 0.0082
x1 = 0.37	0.9819 ± 0.0083
x1 = 0.4337	0.9847 ± 0.0083
x1 = 0.4561	0.9841 ± 0.0083
x1 = 0.4972	0.9842 ± 0.0083
x1 = 0.6006	0.9751 ± 0.0082
x1 = 0.738	0.9538 ± 0.0081
x1 = 0.7863	0.943 ± 0.008
x1 = 0.8636	0.9286 ± 0.0079
x1 = 0.9447	0.912 ± 0.0077

Oc1nc(O)nc(O)n1 + c1ccncc1
Conditions	viscosity [mPa·s]
[1], 298.15 K, 101 kPa, x1 = 0.0199	1.038 ± 0.21

From the CheMixHub viscosity set
